Source: US7186862B2, “Microbicidal agents on the basis of biphenylbenzamide derivatives” (Bayer CropScience AG, priority 2002, dated 2007)

Tests used:
Sphaerotheca fuliginea = test: Sphaerotheca test (cucumber)/protective; format: in vivo; details: Podosphaera fuliginea, 168 h; application rate 100 g/ha; cucumber plants, protective spray; evaluation 7 days after inoculation; 100% = no infection; read-out: Efficacy in %
Method: (§1) [table] To produce a suitable preparation of active compound, 1 part by weight of active compound is mixed with the stated amounts of solvent and emulsifier, and the concentrate is diluted with water to the desired concentration. To test for protective activity, young plants are sprayed with the preparation of active compound at the stated application rate. After the spray coating has dried on, the plants are inoculated with an aqueous spore suspension of Sphaerotheca fuliginea. The plants are then placed in a greenhouse at about 23° C. and a relative atmospheric humidity of about 70%. Evaluation is carried out 7 days after the inoculation. 0% means an efficacy which corresponds to that of the control, whereas an efficacy of 100% means that no infection is observed.

Pyrenophora teres = Pyrenophora teres test (barley)/protective; format: in vivo; details: application rate 500 g/ha; barley plants, protective spray
Method: [table] To produce a suitable preparation of active compound, 1 part by weight of active compound is mixed with the stated amounts of solvent and emulsifier, and the concentrate is diluted with water to the desired concentration. To test for protective activity, young plants are sprayed with the preparation of active compound at the stated application rate. After the spray coating has dried on, the plants are sprayed with a conidia suspension of Pyrenophora teres. The plants remain in an incubation cabin at 20° C. and 100% relative atmospheric humidity for 48 hours. The plants are then placed in a greenhouse at about 20° C. and a relative atmospheric humidity of about 80%.

Venturia inaequalis = test: Venturia test (apple)/protective; format: in vivo; details: 240 h, application rate 100 g/ha, apple plants, protective spray, evaluation 10 days after inoculation, 100% = no infection, read-out: Efficacy in %
Method: as §1, with “conidia” for “spore”, “the apple scab pathogen Venturia inaequalis and then remain in an incubation cabin at about 20° C. and 100% relative atmospheric humidity for 1 day.” for “Sphaerotheca fuliginea.”, “21°” for “23°”, “90%.” for “70%.”, “10” for “7”

[1] = logP determination by HPLC on reversed-phase column (EEC Directive 79/831); format: physicochemical; details: reversed-phase HPLC column (C18), pH 2.3, reversed-phase C18, 43° C., 0.1% aqueous phosphoric acid/acetonitrile gradient
Method: The logP values given in the tables and preparation examples above are determined in accordance with EEC Directive 79/831 Annex V.48 by HPLC (High Performance Liquid Chromatography) on a reversed-phase column (C18). Temperature: 43° C. The determination is carried out in the acidic range at pH 2.3 using the mobile phases 0.1% aqueous phosphoric acid and acetonitrile; linear gradient from 10% acetonitrile to 90% acetonitrile. Calibration is carried out using unbranched […] (of 3 to 16 carbon atoms) with known logP values (determination of the logP values by the retention time using linear interpolation between two successive alkanones).

Podosphaera leucotricha = test: Podosphaera test (apple)/protective; format: in vivo; details: 240 h, application rate 100 g/ha, apple plants, protective spray, evaluation 10 days after inoculation, 100% = no infection, read-out: Efficacy in %
Method: as §1, with “suspension of the apple mildew pathogen Podosphaera leucotricha. The plants” for “suspension of Sphaerotheca fuliginea. The plants”, “carried out 10 days after” for “carried out 7 days after”

Alternaria solani = test: Alternaria test (tomato)/protective; format: in vivo; details: application rate 750 g/ha; tomato plants, protective spray, inoculation 1 day after treatment; evaluation 7 days after inoculation; 100% = no infection
Method: [table] To produce a suitable p reparation of active compound, 1 part by weight of active compound is mixed with the stated amounts of solvent and emulsifier, and the concentrate is diluted with water to the desired concentration. To test for protective activity, young tomato plants are sprayed with the preparation of active compound at the stated application rate. 1 day after the treatment, the plants are inoculated with a spore suspension of Alternaria solani and are then kept at 100% relative atmospheric humidity and 20° C. for 24 h. The plants are then kept at 96% relative atmospheric humidity and a temperature of 20° C. Evaluation is carried out 7 days after the inoculation. 0% means an efficacy which corresponds to that of the control, whereas an efficacy of 100% means that no infection is observed.

Row | chromatographic logP [1] | Compound | pest or weed control at 100 g/ha (Sphaerotheca fuliginea) [%] | Efficacy in % (Pyrenophora teres) [%] | pest or weed control at 100 g/ha (Venturia inaequalis) [%] | pest or weed control at 100 g/ha (Podosphaera leucotricha) [%] | Efficacy in % (Alternaria solani) [%]
1 | 4.13 | O=C(Nc1ccccc1-c1ccc(Cl)c(Cl)c1)c1ccccc1C(F)(F)F [Compound 4] | 100 | 100 | 100 | 100 | 
2 | 3.86 | O=C(Nc1ccccc1-c1cccc(Cl)c1)c1ccccc1C(F)(F)F [Compound 7] | 100 | 90 | 100 | 100 | 94
